Reference: US20080260720A1, “Systems and Methods for Inhibiting Metastasis” (priority 2004, published 2008)

Key:
Type in all cases: cell-based
[1] = tested on: MB-MDA-435 breast cancer cells expressing E-cadherin; test: Wound-filling (cell migration) assay, G12-stimulated cell escape; conditions: MB-MDA-435 cells with E-cadherin and mutationally-activated Gα12; free-migrating cells 39 h after wounding
Description: To determine whether G12 proteins could influence cadherin-mediated suppression of cell migration, wound-filling assays using MB-MDA-435 breast cancer cells expressing E-cadherin were conducted. This system is believed to mimic the escape of potentially metastatic cells from the primary tumor. When a monolayer of cells was wounded by scraping, MB-MDA-435 cells lacking E-cadherin (435-puro) frequently broke free from the advancing “wall” of cells and migrated into the wound area as lone or “free migrating” cells.
Wound-filling assays were performed using MB-MDA-435 cells harboring E-cadherin (435-E-cad) or a control plasmid (435-puro), that were infected 40 h earlier with recombinant adenoviruses expressing either mutationally-activated Gα12 (12^QL) or mutationally-activated Gαi2 (control). Cells were visualized by fluorescence microscopy for GFP expression (indicative of successful adenovirus infection). Cells were photographed at time of initial wounding, performed by scraping cell monolayers with a pipette tip and marling the wounded areas for orientation. Marked areas were re-photographed 39 h after wounding (lower panels). […] Data from 5 randomly selected view fields are presented as mean ±S.E. for each condition. E-cadherin lacking the G12-interacting region fails to suppress cell migration. […]

[2] = tested on: MCF-7 cell line; test: Matrigel invasion assay, MCF-7; conditions: 50 nM thrombin, 24 hrs, MCF-7 cells, Cyquant quantification
Description: (§1) To examine the role of G12/13 in breast cancer invasion, the Matrigel (BD biosciences) invasion assay was used. In this assay, transwell migration chambers are coated with Matrigel, an artificial extracellular matrix believed to closely resemble basal lamina in structure and content. Cells are then plated on top of this matrix and allowed to invade the matrigel and migrate to the underside of the membrane. The cells that reach the underside of the membrane are then quantified as a measure of invasiveness. This system serves as a model for primary tumor invasion, as the matrix mimics the microenvironment through which the cancer cells must pass in order to metastasize.
(§2) MB-MDA-231 and MCF-7 cells were plated on top of a Matrigel (BD Biosciences) coated polycarbonate filter (8.0 μM pore). The filter was transferred to a chamber containing 0.1% BSA-DMEM and the cells were allowed to adhere for 1 hr. The cells were then stimulated with 50 nM thrombin. After 24 hrs, the cells were detached from the underside of the filter and quantified using the Cyquant (Molecular Probes) cell enmieration kit. […] Using retrovirus, stable MB-MDA-231 cell lines expressing p115RGS, RGS2 (see text) or the appropriate vector control were generated. Invasion assays were then preformed as in (a) using these cells.

[3] = tested on: MB-MDA-231 cell line; test: Matrigel invasion assay, MB-MDA-231; conditions: 50 nM thrombin, 24 hrs, MB-MDA-231 cells, Cyquant quantification
Description: as §1, §2

Compound	effect on the G12-stimulated cell escape [1]	invasion through Matrigel [2]	invasion through Matrigel [3]
C[C@@H](N)[C@H]1CC[C@H](C(=O)Nc2ccncc2)CC1 [Y27632]	no effect	–	–
thrombin	–	not	stimulates invasion
